Measurements: ChEMBL document CHEMBL1201862, “PubChem BioAssay data set” (2004)
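Interpolation was linear, between the two tested concentrations surrounding the appropriate level; five concentrations were tested over 48 hours in 96-well plates. At the GI50, growth is halved.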 The source made the active and inactive calls. Cut-off read from the data, not from the text of the source: active = GI50 up to about 1.1 µM and inactive = higher.

What was measured:
Test in all cases: NCI-60 cell line screen, 48 h
LXFL 529 = test system: LXFL 529
XF498 = test system: XF498
DMS-114 = test system: DMS-114
M19-MEL = test system: M19-MEL
DMS-273 = test system: DMS-273
HOP-18 = test system: HOP-18
KM-20L2 = test system: KM-20L2
DLD-1 = test system: DLD-1
RXF 631 = test system: RXF 631

| Structure (SMILES) | GI50 (LXFL 529) | GI50 (XF498) | GI50 (DMS-114) | GI50 (M19-MEL) | GI50 (DMS-273) | GI50 (HOP-18) | GI50 (KM-20L2) | GI50 (DLD-1) | GI50 (RXF 631) |
| --- | --- | --- | --- | --- | --- | --- | --- | --- | --- |
| COC(=O)/C(C)=C/[N+](=O)[O-] | 14 µM (inactive) | 14.3 µM (inactive) | 18.2 µM (inactive) | 17.4 µM (inactive) | 17.8 µM (inactive) | 18 µM (inactive) | 25 µM (inactive) | 1.93 µM (inactive) | – |
| COc1ccc(C2COc3c(ccc(OC)c3OC)C2=O)cc1OC (stereo unspecified) | > 100 µM (inactive) | 94.8 µM (inactive) | 68.7 µM (inactive) | > 100 µM (inactive) | – | > 100 µM (inactive) | > 100 µM (inactive) | > 100 µM (inactive) | – |
| O=c1[nH]c(=O)n(C2CC(O)C(CO)O2)cc1C#Cc1ccc(C(F)(F)F)cc1 (stereo unspecified) | > 100 µM (inactive) | > 100 µM (inactive) | > 100 µM (inactive) | – | > 100 µM (inactive) | > 100 µM (inactive) | > 100 µM (inactive) | > 100 µM (inactive) | > 100 µM (inactive) |
| COc1ccc2c(c1)C=C([N+](=O)[O-])C(C1OC(C)(C)OC1C1COC(C)(C)O1)O2 (stereo unspecified) | 3.81 µM (inactive) | 11 µM (inactive) | 2.88 µM (inactive) | 1.63 µM (inactive) | 2.9 µM (inactive) | 24.7 µM (inactive) | 5.08 µM (inactive) | 1.51 µM (inactive) | – |
| O=C1C=C(Nc2ccc(Cl)cc2C(=O)c2ccccc2)c2ccccc2C1=O | > 100 µM (inactive) | > 100 µM (inactive) | > 100 µM (inactive) | – | > 100 µM (inactive) | > 100 µM (inactive) | > 100 µM (inactive) | > 100 µM (inactive) | > 100 µM (inactive) |
| O=C1c2ccccc2C(=O)c2sc(Nc3ccccc3Cl)nc21 | 2.27 µM (inactive) | 16 µM (inactive) | – | 1.62 µM (inactive) | 13.5 µM (inactive) | 13.4 µM (inactive) | 20.7 µM (inactive) | 4.68 µM (inactive) | 18 µM (inactive) |
| CC1CN1C(=O)NCCCCCCNC(=O)N1CC1C (stereo unspecified) | > 100 µM (inactive) | > 100 µM (inactive) | > 36.2 µM (inactive) | > 100 µM (inactive) | 25.6 µM (inactive) | > 100 µM (inactive) | > 100 µM (inactive) | > 100 µM (inactive) | – |
| Cc1cccc(NC(=O)C(=O)Cc2nc3ccccc3nc2O)c1C | > 100 µM (inactive) | > 100 µM (inactive) | > 100 µM (inactive) | > 100 µM (inactive) | – | > 100 µM (inactive) | > 100 µM (inactive) | > 100 µM (inactive) | – |
| CN(C)CCNc1ccc(CO)c2sc3ccc(O)cc3c(=O)c12 | 4.88 µM (inactive) | 4.92 µM (inactive) | 0.681 µM (active) | 3.08 µM (inactive) | 0.615 µM (active) | 12.9 µM (inactive) | 6.41 µM (inactive) | 3.52 µM (inactive) | – |
| O=C(N/N=C/c1cc(Cl)cc(Cl)c1O)c1ccncc1 | – | – | – | – | – | – | 37.3 µM (inactive) | – | – |
| COc1ccc(/C=C/c2cc(OC)c(O[Si](C)(C)C(C)(C)C)c(OC)c2)cc1 | > 100 µM (inactive) | > 100 µM (inactive) | 14 µM (inactive) | 46.5 µM (inactive) | 67 µM (inactive) | – | > 100 µM (inactive) | > 100 µM (inactive) | 73.1 µM (inactive) |
| CCCCCCCCCCCCCCCCCCOCC(COP(=O)([O-])OCC[N+](C)(C)C)OC (stereo unspecified) [EDELFOSINE] | – | 11.2 µM (inactive) | 13.4 µM (inactive) | 4.58 µM (inactive) | 3.03 µM (inactive) | 13.3 µM (inactive) | 2.9 µM (inactive) | 5.09 µM (inactive) | – |
